According to patent US7030140B2, “Substituted benzimidazole antiviral agents” (Bristol-Myers Squibb Company, priority 1998, dated 2006):
Where a name gives a salt, the structure may show the parent alone.

Assays:
in vitro = settings: human
[1] = test system: respiratory syncytial virus Long strain; experiment: microbe, parasite or virus in culture; assay type: cell-based; settings: for % cell protection from RSV at 4 µg/mL: human respiratory syncytial virus, 96 h, 4 μg/mL of compound, RSV Long strain-infected HEp-2 cells, compound added 1 hour post infection, 4 days, MTT
[2] = test system: HEp-2 (ATCC CCL 23) cells

## CC(O)CCn1c(Cn2nnc3ccccc32)nc2ccccc21 (stereo not drawn) [Example 38]
In vitro
  CC50 at 4 days: > 309 µM
[1]
  % cell protection from RSV at 4 µg/mL: 100%

## [N-]=[N+]=NCCn1c(Cn2nnc3ccccc32)nc2ccccc21 [Example 33, 1-[1-(2-Azido-ethyl)-1-H-benzimidazol-2-ylmethyl)-1H-benzotriazole]
In vitro
  CC50 at 4 days: 75 µM
[1]
  % cell protection from RSV at 4 µg/mL: 82%

## O=C(Cn1c(Cn2nnc3ccccc32)nc2ccccc21)c1ccccc1 [Example 49, 2-[(2-Benzotriazol-1-ylmethyl)-benzimidazol-1-yl]-1-phenyl-ethanone]
In vitro
  CC50 at 4 days: 18 µM
[1]
  % cell protection from RSV at 4 µg/mL: 76%

## c1ccc(CCn2c(Cn3nnc4ccccc43)nc3ccccc32)cc1 [Example 48, 1-[1-(2-Phenethyl)-1-H-benzimidazol-2-ylmethyl)-1H-benzotriazole]
In vitro
  CC50 at 4 days: 2.6 µM
[1]
  % cell protection from RSV at 4 µg/mL: 95%

## CS(=O)(=O)OCCn1c(Cn2nnc3ccccc32)nc2ccccc21 [Example 32, Methanesulfonic Acid, 2-(2-benzotriazol-1-ylmethyl-benzimidazol-1-yl)-ethyl ester]
In vitro
  CC50 at 4 days: 71 µM
[1]
  % cell protection from RSV at 4 µg/mL: 60%

## c1ccc(Cn2c(Cn3nnc4ccccc43)nc3ccccc32)cc1 [Example 46, 1-[(1-Phenylmethyl-1H-benzimidazol)-2-ylmethyl]-1H-benzotriazole]
In vitro
  CC50 at 4 days: 97 µM
[1]
  % cell protection from RSV at 4 µg/mL: 53%

## c1cncc(Cn2c(Cn3nnc4ccccc43)nc3ccccc32)c1 [Example 47, 1-[1-(Pyridin-3-yl-methyl)-1H-benzimidazol-2-ylmethyl]-1H-benzotriazole]
In vitro
  CC50 at 4 days: 250 µM
[1]
  % cell protection from RSV at 4 µg/mL: 40%

## CCCCn1c(Cn2nnc3ccccc32)nc2ccccc21 [Example 19, 1-(1-Butyl-1H-benzimidazol-2-ylmethyl)-1H-benzotriazole]
In vitro
  CC50 at 4 days: 12 µM
[1]
  % cell protection from RSV at 4 µg/mL: 95%

## CC(N)CCn1c(Cn2nnc3ccccc32)nc2ccccc21 (stereo not drawn) [Example 40, 3-(2-Benzotriazol-1-ylmethyl-benzimidazol-1-yl)-1-methyl-propylamine]
In vitro
  CC50 at 4 days: 8.5 µM
[1]
  % cell protection from RSV at 4 µg/mL: 96%

## CC(C)(C)OC(=O)CCn1c(Cn2nnc3ccccc32)nc2ccccc21 [Example 42]
In vitro
  CC50 at 4 days: 168 µM
[1]
  % cell protection from RSV at 4 µg/mL: 100%

## c1ccc2c(c1)nnn2Cc1nc2ccccc2n1CC1OCCO1 [Example 28]
In vitro
  CC50 at 4 days: 29 µM
[1]
  % cell protection from RSV at 4 µg/mL: 61%

## C[S+]([O-])CCn1c(Cn2nnc3ccccc32)nc2ccccc21 (stereo not drawn) [Example 25, 1-[1-(2-Methylsulfinyl-ethyl)-1H-benzimidazol-2-ylmethyl]-1H-benzotriazole]
In vitro
  CC50 at 4 days: 56 µM
[1]
  % cell protection from RSV at 4 µg/mL: 100%

## OCCn1c(Cn2nnc3ccccc32)nc2ccccc21 [Example 31, 2-(2-Benzoatrizol-1-ylmethyl-benzimidazol-1-yl)-ethanol]
In vitro
  CC50 at 4 days: 21 µM
[1]
  % cell protection from RSV at 4 µg/mL: 48%

## OC(Cn1c(Cn2nnc3ccccc32)nc2ccccc21)c1ccccc1 (stereo not drawn) [Example 50, 2-[(2-Benzotriazol-1-ylmethyl)-benzimidazol-1-yl]-1-phenyl-ethanol]
In vitro
  CC50 at 4 days: 36 µM
[1]
  % cell protection from RSV at 4 µg/mL: 94%

## c1ccc2c(c1)nnn2Cc1nc2ccccc2n1CCC1OCCO1 [Example 29]
In vitro
  CC50 at 4 days: 185 µM
[1]
  % cell protection from RSV at 4 µg/mL: 98%

## CS(=O)(=O)CCn1c(Cn2nnc3ccccc32)nc2ccccc21 [Example 26, 1-[1-(2-Methylsulfonyl-ethyl)-1H-benzimidazol-2-ylmethyl]-1H-benzotriazole]
In vitro
  CC50 at 4 days: 200 µM
[1]
  % cell protection from RSV at 4 µg/mL: 100%

## CC(C)CCn1c(Cn2nc3ccccc3n2)nc2ccccc21 [Example 61, 2-[1-(3-methylbutyl)-1H-benzimidazol-2-ylmethyl]-2H-benzotriazole Dihydrochloride]
In vitro
  CC50 at 4 days: 27 µM
[1]
  % cell protection from RSV at 4 µg/mL: 78%

## CC(CCn1c(Cn2nnc3ccccc32)nc2ccccc21)CC(C)(C)C (stereo not drawn) [Example 23, 1-[1-(3,5,5-Trimethyl-hexyl)-1H-benzimidazol-2-ylmethyl]-1H-benzotriazole]
In vitro
  CC50 at 4 days: 59 µM
[1]
  % cell protection from RSV at 4 µg/mL: 98%

## CNC(=O)Cn1c(Cn2nnc3ccccc32)nc2ccccc21 [Example 35, 2-(2-Benzotriazol-1-ylmethyl-benzimidazol-1-yl)-N-methyl acetamide]
In vitro
  CC50 at 4 days: 230 µM
[1]
  % cell protection from RSV at 4 µg/mL: 58%

## CC(C)(C)C(O)Cn1c(Cn2nnc3ccccc32)nc2ccccc21 (stereo not drawn) [Example 27, 1-(2-Benzotriazol-1-ylmethyl-1-H-benzimidazol-1-yl)-3,3-dimethylbutan-2-ol]
In vitro
  CC50 at 4 days: 117 µM
[1]
  % cell protection from RSV at 4 µg/mL: 44%

## CC(CCn1c(Cn2nnc3ccccc32)nc2ccccc21)=NO [Example 39]
In vitro
  CC50 at 4 days: > 33 µM
[1]
  % cell protection from RSV at 4 µg/mL: 100%

## CC(C)CCCn1c(Cn2nnc3ccccc32)nc2ccccc21 [Example 22, 1-[1-(4-Methylpentyl)-1H-benzimidazol-2-ylmethyl]-1H-benzotriazole]
In vitro
  CC50 at 4 days: 15 µM
[1]
  % cell protection from RSV at 4 µg/mL: 75%

## N/C(CCn1c(Cn2nnc3ccccc32)nc2ccccc21)=N\O [Example 44, N-[3-(2-Benzotriazol-1-ylmethyl-benzimidazol-1-yl)-1-imino-propyl)-hydroxyamine]
In vitro
  CC50 at 4 days: 16 µM
[1]
  % cell protection from RSV at 4 µg/mL: 91%

## CSCCn1c(Cn2nnc3ccccc32)nc2ccccc21 [Example 24, 1-[1-(2-Methylthio-ethyl)-1H-benzimidazol-2-ylmethyl]-1H-benzotriazole]
In vitro
  CC50 at 4 days: 165 µM
[1]
  % cell protection from RSV at 4 µg/mL: 100%

## CC(=O)CCn1c(Cn2nnc3ccccc32)nc2ccccc21 [Example 37]
[2]
  CC50: 59 µM
[1]
  % Cell protection at 4 μg/mL: 100%

## O=C(O)CCn1c(Cn2nnc3ccccc32)nc2ccccc21 [Example 43]
In vitro
  CC50 at 4 days: > 309 µM
[1]
  % cell protection from RSV at 4 µg/mL: 82%

## N=C(N)CCn1c(Cn2nnc3ccccc32)nc2ccccc21 [Example 45, 3-(2-Benzotriazol-1-ylmethyl-benzimidazol-1-yl)-1-imino-1propyl-amine Diacetate]
In vitro
  CC50 at 4 days: 6.3 µM
[1]
  % cell protection from RSV at 4 µg/mL: 74%

## CC(C)=CCn1c(Cn2nnc3ccccc32)nc2ccccc21 [Example 21, 1-[1-(3-Methyl-2-butenyl)-1H-benzimidazol-2-ylmethyl]-1H-benzotriazole]
In vitro
  CC50 at 4 days: 69 µM
[1]
  % cell protection from RSV at 4 µg/mL: 98%

## O=CCCn1c(Cn2nnc3ccccc32)nc2ccccc21 [Example 30, 1-[(2-Benzotriazol-1-ylmethyl)-1-H-benzimidazol-1-yl]-propionaldehyde]
In vitro
  CC50 at 4 days: 108 µM
[1]
  % cell protection from RSV at 4 µg/mL: 90%

## NC(=O)c1ncn([C@@H]2O[C@H](CO)[C@@H](O)[C@H]2O)n1 [Ribavirin, reference compound]
[1]; control compound at 2.5 μg/mL (corresponding to 10.2 μM)
  cell protection: 100%

## CC(C)CCn1c(Cn2nnc3ccccc32)nc2ccccc21 [Example 20, 1-[1-(3-Methylbutyl)-1H-benzimidazol-2-ylmethyl)-1H-benzotriazole]
In vitro
  CC50 at 4 days: 40 µM
[1]
  % cell protection from RSV at 4 µg/mL: 87%

## NC(=O)CCn1c(Cn2nnc3ccccc32)nc2ccccc21 [Example 41, 3-(2-Benzotriazol-1-ylmethyl-1-H-benzimidazol-1-yl)-propionamide]
In vitro
  CC50 at 4 days: 4.3 µM
[1]
  % cell protection from RSV at 4 µg/mL: 75%
